Assay results: ChEMBL document CHEMBL3885881, “DrugMatrix”

Species on record: Rattus norvegicus
Assay: DrugMatrix - Regimen: Daily Repeat
Type: toxicity, organism-based, Sprague-Dawley
Parameters: regimen Daily Repeat, gender Male, age 6-8 weeks
Settings: in vivo, po, route oral GAVAGE, […]; for ABSOLUTE BASOPHIL / BASOPHIL / NUCLEATED RED BLOOD CELLS / ABSOLUTE EOSINOPHIL / EOSINOPHIL / ERYTHROCYTE COUNT / HEMATOCRIT / HEMOGLOBIN / LEUKOCYTE COUNT / LYMPHOCYTE / MEAN CORPUSCULAR HEMOGLOBIN / MEAN CORPUSCULAR HEMOGLOBIN CONCENTRATION / MEAN CORPUSCULAR VOLUME / MONOCYTE / NEUTROPHIL / PLATELET COUNT / ABSOLUTE LYMPHOCYTE / ABSOLUTE MONOCYTE / ABSOLUTE SEGMENTED NEUTROPHIL: tissue Blood
[1] = 0 mg/kg, 72 h, dose level Control, time 3 day
[2] = 0 mg/kg, 120 h, dose level Control, time 5 day
[3] = 0 mg/kg, dose level Control, time 28 day
[4] = 0 mg/kg, tissue Plasma, dose level Control, time 28 day
[5] = 23 mg/kg, 72 h, dose level Low, time 3 day
[6] = 23 mg/kg, 72 h, tissue Plasma, dose level Low, time 3 day
[7] = 23 mg/kg, 120 h, dose level High, time 5 day
[8] = 23 mg/kg, 120 h, dose level Low, time 5 day
[9] = 23 mg/kg, 120 h, tissue Plasma, dose level High, time 5 day
[10] = 23 mg/kg, 120 h, tissue Plasma, dose level Low, time 5 day

Structure (SMILES): CC1=C(CC(=O)O)c2cc(F)ccc2/C1=C\c1ccc([S+](C)[O-])cc1 (stereo not given)
- ABSOLUTE BASOPHIL [1]: 0 CELLS/uL
- BASOPHIL [1]: 0%
- NUCLEATED RED BLOOD CELLS [1]: 0 /100WBC
- ABSOLUTE BASOPHIL [2]: 0 CELLS/uL
- ABSOLUTE EOSINOPHIL [2]: 0 CELLS/uL
- BASOPHIL [3]: 0.42%
- EOSINOPHIL [3]: 0.58%
- ERYTHROCYTE COUNT [3]: 8.06 x10E6/uL
- HEMATOCRIT [3]: 48.44%
- HEMOGLOBIN [3]: 16.34 G/DL
- LEUKOCYTE COUNT [3]: 13.04 x10E3/uL
- LYMPHOCYTE [3]: 85.12%
- MEAN CORPUSCULAR HEMOGLOBIN [3]: 20.26 pg
- MEAN CORPUSCULAR HEMOGLOBIN CONCENTRATION [3]: 33.74 G/DL
- MEAN CORPUSCULAR VOLUME [3]: 60.1 fL
- MONOCYTE [3]: 1.44%
- NEUTROPHIL [3]: 11.28%
- PLATELET COUNT [3]: 1226 x10E3/uL
- ALANINE AMINOTRANSFERASE [4]: 28.6 u/L
- ALBUMIN [4]: 3.94 G/DL
- ALKALINE PHOSPHATASE [4]: 254.6 u/L
- ASPARTATE AMINOTRANSFERASE [4]: 67.8 u/L
- BLOOD UREA NITROGEN [4]: 10.4 mg/dL
- CHLORIDE [4]: 104.6 MEQ/L
- CHOLESTEROL [4]: 57.6 mg/dL
- CREATINE PHOSPHOKINASE [4]: 224.8 u/L
- CREATININE [4]: 0.4 mg/dL
- GLUCOSE [4]: 140.6 mg/dL
- PHOSPHORUS [4]: 10.66 mg/dL
- POTASSIUM [4]: 6.58 MEQ/L
- SODIUM [4]: 148.6 MEQ/L
- TOTAL BILIRUBIN [4]: 0.24 mg/dL
- TOTAL PROTEIN [4]: 6.64 G/DL
- ABSOLUTE BASOPHIL [5]: 0 CELLS/uL
- ABSOLUTE EOSINOPHIL [5]: 0 CELLS/uL
- ABSOLUTE LYMPHOCYTE [5]: 6660 CELLS/uL
- ABSOLUTE MONOCYTE [5]: 202 CELLS/uL
- ABSOLUTE SEGMENTED NEUTROPHIL [5]: 1671.33 CELLS/uL
- BASOPHIL [5]: 0%
- EOSINOPHIL [5]: 0%
- ERYTHROCYTE COUNT [5]: 4.91 x10E6/uL
- HEMATOCRIT [5]: 31.27%
- HEMOGLOBIN [5]: 12.6 G/DL
- LEUKOCYTE COUNT [5]: 8.53 x10E3/uL
- LYMPHOCYTE [5]: 79.33%
- MEAN CORPUSCULAR HEMOGLOBIN [5]: 25.63 pg
- MEAN CORPUSCULAR HEMOGLOBIN CONCENTRATION [5]: 40.27 G/DL
- MEAN CORPUSCULAR VOLUME [5]: 63.67 fL
- MONOCYTE [5]: 2.33%
- NEUTROPHIL [5]: 18.33%
- NUCLEATED RED BLOOD CELLS [5]: 0 /100WBC
- PLATELET COUNT [5]: 1080 x10E3/uL
- ALANINE AMINOTRANSFERASE [6]: 65.67 u/L
- ALBUMIN [6]: 3.97 G/DL
- ALKALINE PHOSPHATASE [6]: 429 u/L
- ASPARTATE AMINOTRANSFERASE [6]: 75.67 u/L
- BLOOD UREA NITROGEN [6]: 14.33 mg/dL
- CARBON DIOXIDE [6]: 38.33 mmol/L
- CHLORIDE [6]: 99.33 MEQ/L
- CHOLESTEROL [6]: 87 mg/dL
- CREATINE PHOSPHOKINASE [6]: 223.33 u/L
- CREATININE [6]: 0.18 mg/dL
- GLUCOSE [6]: 181 mg/dL
- LACTATE DEHYDROGENASE [6]: 60.67 u/L
- LIPASE [6]: 16 u/L
- PHOSPHORUS [6]: 9.23 mg/dL
- POTASSIUM [6]: 4.45 MEQ/L
- SODIUM [6]: 143.57 MEQ/L
- TOTAL BILIRUBIN [6]: 0.13 mg/dL
- TOTAL PROTEIN [6]: 5.8 G/DL
- URIC ACID [6]: 0.47 mg/dL
- BASOPHIL [7]: 0.28%
- EOSINOPHIL [7]: 0.82%
- ERYTHROCYTE COUNT [7]: 7.33 x10E6/uL
- HEMATOCRIT [7]: 47.1%
- HEMOGLOBIN [7]: 14.9 G/DL
- LEUKOCYTE COUNT [7]: 7.35 x10E3/uL
- LYMPHOCYTE [7]: 79.44%
- MEAN CORPUSCULAR HEMOGLOBIN [7]: 20.4 pg
- MEAN CORPUSCULAR HEMOGLOBIN CONCENTRATION [7]: 31.66 G/DL
- MEAN CORPUSCULAR VOLUME [7]: 64.4 fL
- MONOCYTE [7]: 1.92%
- NEUTROPHIL [7]: 16.36%
- PLATELET COUNT [7]: 1405.2 x10E3/uL
- ABSOLUTE BASOPHIL [8]: 0 CELLS/uL
- ABSOLUTE EOSINOPHIL [8]: 0 CELLS/uL
- ABSOLUTE LYMPHOCYTE [8]: 5718.33 CELLS/uL
- ABSOLUTE MONOCYTE [8]: 84 CELLS/uL
- ABSOLUTE SEGMENTED NEUTROPHIL [8]: 664.33 CELLS/uL
- BASOPHIL [8]: 0%
- EOSINOPHIL [8]: 0%
- ERYTHROCYTE COUNT [8]: 5.51 x10E6/uL
- HEMATOCRIT [8]: 34.03%
- HEMOGLOBIN [8]: 13.47 G/DL
- LEUKOCYTE COUNT [8]: 6.47 x10E3/uL
- LYMPHOCYTE [8]: 88.33%
- MEAN CORPUSCULAR HEMOGLOBIN [8]: 24.47 pg
- MEAN CORPUSCULAR HEMOGLOBIN CONCENTRATION [8]: 39.6 G/DL
- MEAN CORPUSCULAR VOLUME [8]: 61.87 fL
- MONOCYTE [8]: 1.33%
- NEUTROPHIL [8]: 10.33%
- NUCLEATED RED BLOOD CELLS [8]: 0.33 /100WBC
- PLATELET COUNT [8]: 949.67 x10E3/uL
- ALANINE AMINOTRANSFERASE [9]: 32.2 u/L
- ALBUMIN [9]: 3.8 G/DL
- ALKALINE PHOSPHATASE [9]: 308.4 u/L
- ASPARTATE AMINOTRANSFERASE [9]: 75.4 u/L
- BLOOD UREA NITROGEN [9]: 8.8 mg/dL
- CHLORIDE [9]: 109 MEQ/L
- CHOLESTEROL [9]: 63.8 mg/dL
- CREATINE PHOSPHOKINASE [9]: 287.2 u/L
- CREATININE [9]: 0.42 mg/dL
- GLUCOSE [9]: 131.8 mg/dL
- PHOSPHORUS [9]: 14.88 mg/dL
- POTASSIUM [9]: 6.36 MEQ/L
- SODIUM [9]: 151.6 MEQ/L
- TOTAL BILIRUBIN [9]: 0.18 mg/dL
- TOTAL PROTEIN [9]: 6.24 G/DL
- ALANINE AMINOTRANSFERASE [10]: 67.33 u/L
- ALBUMIN [10]: 4.17 G/DL
